target: T1, human TRPM8 (Homo sapiens, UniProt Q7Z2W7); assay: Luminescence readout assay for measuring intracellular calcium (aequorin), hTRPM8 antagonism; format: cell-based; details: CHO cell line expressing human TRPM8 and aequorin; activation by icilin, L-menthol or cold buffer (table does not say which)
T1 construct: expressed in transfected cells; host or cells: Chinese hamster ovary (CHO) cells, T-REx tetracycline-inducible expression system (Invitrogen), co-transfected with pcDNA3.1 jellyfish aequorin
T1 sequence (Q7Z2W7 whole entry): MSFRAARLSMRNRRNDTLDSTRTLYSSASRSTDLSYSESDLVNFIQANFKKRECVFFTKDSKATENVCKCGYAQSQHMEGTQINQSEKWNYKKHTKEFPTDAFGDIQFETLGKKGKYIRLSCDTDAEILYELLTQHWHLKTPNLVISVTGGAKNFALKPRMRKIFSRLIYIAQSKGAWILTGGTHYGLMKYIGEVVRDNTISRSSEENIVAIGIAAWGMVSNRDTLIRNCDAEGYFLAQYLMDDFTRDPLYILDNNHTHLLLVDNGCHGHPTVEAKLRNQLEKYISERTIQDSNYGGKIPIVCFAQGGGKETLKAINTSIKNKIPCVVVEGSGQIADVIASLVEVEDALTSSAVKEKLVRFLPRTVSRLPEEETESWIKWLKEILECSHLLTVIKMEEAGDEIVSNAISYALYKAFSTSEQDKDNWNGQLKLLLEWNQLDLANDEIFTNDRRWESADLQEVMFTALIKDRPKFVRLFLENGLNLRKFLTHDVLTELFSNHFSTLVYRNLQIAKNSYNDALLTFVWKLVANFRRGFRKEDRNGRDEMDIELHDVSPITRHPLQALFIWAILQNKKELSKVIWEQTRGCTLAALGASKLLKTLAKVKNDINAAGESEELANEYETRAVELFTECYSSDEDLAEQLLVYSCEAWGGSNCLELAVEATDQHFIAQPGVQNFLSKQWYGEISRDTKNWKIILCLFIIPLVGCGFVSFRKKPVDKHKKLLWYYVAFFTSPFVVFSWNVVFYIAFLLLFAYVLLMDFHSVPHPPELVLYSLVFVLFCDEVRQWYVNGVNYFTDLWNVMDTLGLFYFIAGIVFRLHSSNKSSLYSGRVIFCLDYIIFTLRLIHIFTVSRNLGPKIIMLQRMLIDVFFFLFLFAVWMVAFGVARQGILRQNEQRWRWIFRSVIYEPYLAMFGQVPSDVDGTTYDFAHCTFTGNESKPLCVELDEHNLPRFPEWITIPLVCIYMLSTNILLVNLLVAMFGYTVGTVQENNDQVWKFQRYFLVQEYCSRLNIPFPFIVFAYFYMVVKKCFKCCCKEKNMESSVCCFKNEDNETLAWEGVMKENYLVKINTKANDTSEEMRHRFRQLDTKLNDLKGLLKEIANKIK
Procedure: Luminescence Readout Assay for Measuring Intracellular Calcium.
A stable Chinese hamster ovary cell line expressing human TRPM8 was generated using tetracycline inducible T-REx™ expression system from Invitrogen, Inc. (Carlsbad, Calif.). […] Twenty four hours before the assay, cells were seeded in 96-well plates and TRPM8 expression was induced with 0.5 μg/mL tetracycline. […] Potential antagonists were added 2.5 min prior to the addition of agonist, […], 100 µM L-menthol, or 1 min prior to the addition of cold buffer (<10° C.). The luminescence was measured by a CCD camera based FLASH-luminometer built by Amgen, Inc. A cooling device attached to FLASH luminometer was used for cold activation.

IC50 [nM]	Compound
97	O=C(Nc1cccnc1)N[C@@H](c1ccc(C(F)(F)F)cc1)c1ccccn1 [Example 30, (S)-1-(pyridin-2-yl(4-(trifluoro-methyl)-phenyl)-methyl)-3-(pyridin-3-yl)-urea]
533	O=C(Nc1cccnc1)N[C@@H](c1cnc2c(F)cccc2c1)c1ncccc1C(F)(F)F [Example 14, (S)-1-((8-fluoro-quinolin-3-yl)-(3-(trifluoro-methyl)-pyridin-2-yl)-methyl)-3-(pyridin-3-yl)-urea]
156	CSc1ccccc1NC(=O)N[C@@H](c1ccc(C(F)(F)F)cc1)c1ncccc1C(F)(F)F [Example 137, (S)-1-(2-(methylthio)-phenyl)-3-((4-(trifluoro-methyl)-phenyl)(3-(trifluoro-methyl)-pyridin-2-yl)-methyl)urea (2,2,2-trifluoro-acetate)]
559	COc1cccc(CCNC(=O)N[C@@H](c2ccc(C(F)(F)F)cc2)c2ncccc2C(F)(F)F)c1OC [Example 82, (S)-1-(2,3-dimethoxy-phenethyl)-3-((4-(trifluoro-methyl)-phenyl)(3-(trifluoro-methyl)-pyridin-2-yl)-methyl)urea (2,2,2-trifluoro-acetate)]
1250	Cn1ccc(NC(=O)N[C@@H](c2ccc(C(F)(F)F)cc2)c2ncccc2F)cc1=O [Example 161, (S)-1-((3-fluoropyridin-2-yl)(4-(trifluoro-methyl)-phenyl)-methyl)-3-(1-methyl-2-oxo-1,2-dihydropyridin-4-yl)urea]
604	CCCCOC(=O)CNC(=O)N[C@@H](c1ccc(C(F)(F)F)cc1)c1ncccc1C(F)(F)F [Example 104, (S)-butyl 2-(3-((4-(trifluoro-methyl)-phenyl)(3-(trifluoro-methyl)-pyridin-2-yl)-methyl)-ureido)acetate (2,2,2-trifluoro-acetate)]
3720	CC(=O)c1ccc(NC(=O)N[C@@H](c2ccc(C(F)(F)F)cc2)c2ncccc2C(F)(F)F)cc1 [Example 138, (S)-1-(4-acetylphenyl)-3-((4-(trifluoro-methyl)-phenyl)(3-(trifluoro-methyl)-pyridin-2-yl)-methyl)urea (2,2,2-trifluoro-acetate)]
7	O=C(Nc1cccnc1)N[C@@H](c1ccc(OC(F)(F)F)c(F)c1)c1ncccc1F [Example 188, (S)-1-((3-fluoro-4-(trifluoro-methoxy)phenyl) (3-fluoropyridin-2-yl)methyl)-3-(pyridin-3-yl) urea]
61	COc1cccc(NC(=O)N[C@@H](c2ccc(C(F)(F)F)cc2)c2ncccc2C(F)(F)F)c1 [Example 52, (S)-1-(3-methoxy-phenyl)-3-((4-(trifluoro-methyl)-phenyl)(3-(trifluoro-methyl)-pyridin-2-yl)-methyl)urea (2,2,2-trifluoro-acetate)]
866	O=C(Nc1c(Br)cc(F)cc1Br)N[C@@H](c1ccc(C(F)(F)F)cc1)c1ncccc1C(F)(F)F [Example 63, (S)-1-(2,6-dibromo-4-fluorophenyl)-3-((4-(trifluoro-methyl)-phenyl)(3-(trifluoro-methyl)-pyridin-2-yl)-methyl)urea (2,2,2-trifluoro-acetate)]
182	O=C(Nc1ccnc2ccccc12)N[C@@H](c1ccc(C(F)(F)F)cc1)c1ncccc1C(F)(F)F [Example 60, (S)-1-(quinolin-4-yl)-3-((4-(trifluoro-methyl)-phenyl)(3-(trifluoro-methyl)-pyridin-2-yl)-methyl)urea]
1310	O=C(Nc1cccnc1)N[C@@H](c1ccccc1)c1ncccc1C(F)(F)F [Example 20, (S)-1-(phenyl(3-(trifluoro-methyl)-pyridin-2-yl)-methyl)-3-(pyridin-3-yl)-urea]
3830	Cc1cccc(CNC(=O)N[C@@H](c2ccc(C(F)(F)F)cc2)c2ncccc2C(F)(F)F)c1 [Example 147, (S)-1-(3-methylbenzyl)-3-((4-(trifluoro-methyl)-phenyl)(3-(trifluoro-methyl)-pyridin-2-yl)-methyl)urea (2,2,2-trifluoro-acetate)]
777	Cc1noc(-c2ccccc2)c1NC(=O)N[C@@H](c1ccc(C(F)(F)F)cc1)c1ncccc1C(F)(F)F [Example 69, (S)-1-(3-methyl-5-phenylisoxazol-4-yl)-3-((4-(trifluoro-methyl)-phenyl)(3-(trifluoro-methyl)-pyridin-2-yl)-methyl)urea (2,2,2-trifluoro-acetate)]
4060	COc1cccc([C@@H](C)NC(=O)N[C@@H](c2ccc(C(F)(F)F)cc2)c2ncccc2C(F)(F)F)c1 [Example 128, 1-((R)-1-(3-methoxy-phenyl)ethyl)-3-((S)-(4-(trifluoro-methyl)-phenyl)(3-(trifluoro-methyl)-pyridin-2-yl)-methyl)urea (2,2,2-trifluoro-acetate)]
517	O=C(N[C@@H](c1ccc(OC(F)(F)F)c(F)c1)c1ncccc1F)OC1COC1 [Example 177, (S)-oxetan-3-yl ((3-fluoro-4-(trifluoromethoxy)phenyl)(3-fluoropyridin-2-yl)methyl)carbamate]
230	COc1ccc([C@H](NC(=O)Nc2cccnc2)c2ncccc2C(F)(F)F)cc1 [Example 2, (S)-1-((4-methoxy-phenyl)(3-(trifluoro-methyl)-pyridin-2-yl)-methyl)-3-(pyridin-3-yl)-urea]
829	O=C(NCc1ccc(Cl)cc1Cl)N[C@@H](c1ccc(C(F)(F)F)cc1)c1ncccc1C(F)(F)F [Example 135, (S)-1-(2,4-dichlorobenzyl)-3-((4-(trifluoro-methyl)-phenyl)(3-(trifluoro-methyl)-pyridin-2-yl)-methyl)urea (2,2,2-trifluoro-acetate)]
80	N#Cc1cccc(NC(=O)N[C@@H](c2ccc(C(F)(F)F)cc2)c2ncccc2C(F)(F)F)c1 [Example 97, (S)-1-(3-cyanophenyl)-3-((4-(trifluoro-methyl)-phenyl)(3-(trifluoro-methyl)-pyridin-2-yl)-methyl)urea (2,2,2-trifluoro-acetate)]
670	O=C(NC1CCN(C(=O)OCc2ccccc2)CC1)N[C@@H](c1ccc(C(F)(F)F)cc1)c1ncccc1C(F)(F)F [Example 75, (S)-benzyl 4-(3-((4-(trifluoro-methyl)-phenyl)(3-(trifluoro-methyl)-pyridin-2-yl)-methyl)-ureido)-piperidine-1-carboxylate (2,2,2-trifluoro-acetate)]
201	O=C(Nc1cccnc1)NC(c1ccc(F)c(C(F)(F)F)c1)c1ncccc1F (stereo not drawn) [Example 22, 1-((4-fluoro-3-(trifluoro-methyl)-phenyl)(3-fluoropyridin-2-yl)methyl)-3-(pyridin-3-yl)urea (2,2,2-trifluoro-acetate)]
560	COc1ccc(C)cc1NC(=O)N[C@@H](c1ccc(C(F)(F)F)cc1)c1ncccc1C(F)(F)F [Example 183, (S)-1-(2-methoxy-5-methylphenyl)-3-((4-(trifluoro-methyl)phenyl) (3-(trifluoro-methyl)pyridin-2-yl)methyl)urea (2,2,2-trifluoro-acetate)]
31	CC(=O)c1cccc(NC(=O)N[C@@H](c2ccc(C(F)(F)F)cc2)c2ncccc2C(F)(F)F)c1 [Example 86, (S)-1-(3-acetylphenyl)-3-((4-(trifluoro-methyl)-phenyl)(3-(trifluoro-methyl)-pyridin-2-yl)-methyl)urea (2,2,2-trifluoro-acetate)]
545	C=C(C)c1cccc(C(C)(C)NC(=O)N[C@@H](c2ccc(C(F)(F)F)cc2)c2ncccc2C(F)(F)F)c1 [Example 105, (S)-1-(2-(3-(prop-1-en-2-yl)phenyl)-propan-2-yl)-3-((4-(trifluoro-methyl)-phenyl)(3-(trifluoro-methyl)-pyridin-2-yl)-methyl)urea (2,2,2-trifluoro-acetate)]
2220	CCOC(=O)C(NC(=O)N[C@@H](c1ccc(C(F)(F)F)cc1)c1ncccc1C(F)(F)F)C(C)C (stereo partly drawn) [Example 98, ethyl 3-methyl-2-(3-((S)-(4-(trifluoro-methyl)-phenyl)(3-(trifluoro-methyl)-pyridin-2-yl)-methyl)-ureido)-butanoate (2,2,2-trifluoro-acetate)]
145	COc1ccc([C@H](NC(=O)Nc2cccnc2)c2ncccc2C(F)(F)F)cc1F [Example 5, (S)-1-((3-fluoro-4-methoxy-phenyl)(3-(trifluoro-methyl)-pyridin-2-yl)-methyl)-3-(pyridin-3-yl)-urea]
68	CC(C)OC(=O)N[C@@H](c1ccc(OC(F)(F)F)c(F)c1)c1ncccc1F [Example 175, (S)-isopropyl ((3-fluoro-4-(trifluoromethoxy)phenyl)(3-fluoropyridin-2-yl)methyl)carbamate]
657	O=C(NCC1CCCCC1)N[C@@H](c1ccc(C(F)(F)F)cc1)c1ncccc1C(F)(F)F [Example 127, (S)-1-(cyclohexyl-methyl)-3-((4-(trifluoro-methyl)-phenyl)(3-(trifluoro-methyl)-pyridin-2-yl)-methyl)urea (2,2,2-trifluoro-acetate)]
142	O=C(Nc1cccc([N+](=O)[O-])c1)N[C@@H](c1ccc(C(F)(F)F)cc1)c1ncccc1C(F)(F)F [Example 100, (S)-1-(3-nitrophenyl)-3-((4-(trifluoro-methyl)-phenyl)(3-(trifluoro-methyl)-pyridin-2-yl)-methyl)urea (2,2,2-trifluoro-acetate)]
2380	COc1cc(CNC(=O)N[C@@H](c2ccc(C(F)(F)F)cc2)c2ncccc2C(F)(F)F)cc(OC)c1OC [Example 111, (S)-1-((4-(trifluoro-methyl)-phenyl)(3-(trifluoro-methyl)-pyridin-2-yl)-methyl)-3-(3,4,5-trimethoxy-benzyl)urea (2,2,2-trifluoro-acetate)]
